In assay [1] the test system is E. coli DHB4. Put plainly: E. coli growth curves in 15 ml tubes, OD600 nm. In kind it is cell-based, Escherichia coli. The protocol:
The large scale growth inhibition of E. coli by Ag^+ with ebselen in combination was also observed in shaking testing 15 ml tubes. […] PI is a membrane-impermeable fluorescent dye that has been widely used to detect permeation of cell membrane and dead cells.
E. coli DHB4 cells were grown in 15 ml tubes until an OD600 nm of 0.4, and treated with 5 μM AgNO3 and serial concentration of ebselen (0, 20, 40, 80 μM) in combination. The survival of untreated E. coli was compared with the antibiotic-treated cells by measuring OD600 nm and counting the colonies. For colony formation assay, cells were harvested at 10 min, 1 h, 2 h, and 4 h by centrifugation at 6,000 rpm for 5 min and thoroughly washed 3 times with PBS. The cells were serially diluted in PBS, and 100 μl cultures were plated on LB plates. The colonies were counted after overnight incubation, and CFU/ml was calculated using the following formula: [(colonies)*(dilution factor)]/(amount plated).

The next assay relates to E. coli DHB4 oxyR^−. Put plainly: microbe, parasite or virus in culture. In kind it is cell-based, Escherichia coli. The settings on record: for MIC: read-out: MIC of ebselen in the presence of silver. The procedure: (§1) Since Trx and GSH/Grx are major thiol-dependent systems, investigated were the effects of Ag^+ with ebselen in combination on Trx or GSH system-deficient E. coli redox mutants.
One major function of GSH and Trx systems is to scavenge ROS to keep cellular redox balance and protect against oxidative stress. The inhibition of the Trx system and depletion of GSH may responsible for the elevation of ROS.
(§2) Serial dilutions of ebselen and AgNO3 were added to the individual wells. The minimum inhibitory concentration (MIC) was determined after 24 h culture at 37° C.

Assay [2] relates to E. coli DHB4. The assay can be described thus: ROS production, H2DCF-DA staining, flow cytometry. The assay is classed as cell-based, Escherichia coli. The conditions noted are these: 5 μM Ag^+ alone or 20 μM ebselen alone. The procedure: The E. coli DHB4 cells were grown till the absorbance at OD600 nm of 0.4 in LB medium, and the bacterial cells were treated with different combinations of ebselen and AgNO3 for 10 min. To analyze the amount of ROS production in the bacteria, cells were harvested by centrifugation at 6,000 rpm for 5 min and thoroughly washed 3 times with PBS, and stained with 5 μM H2DCF-DA for 20 min. After the incubation, cells were spin down and re-suspended in PBS, and the ROS production was quantified by flow cytometry (CyAn adp, Beckman coulter).
The E. coli DHB4 cells were grown till the absorbance at OD600 nm of 0.4 in LB medium, and the bacterial cells were treated with silver and antibiotics in combinations for 10 min. To analyze the amount of ROS production in the bacteria, cells were harvested by centrifugation at 6,000 rpm for 5 min and thoroughly washed 3 times with PBS, and stained with 5 μM H2DCF-DA for 20 min. After the incubation, cells were spun down and re-suspended in PBS, and the ROS production was quantified by flow cytometry (CyAnadp, Beckman coulter).
On the technique in general: In flow cytometry, cells or beads pass a laser one at a time.

Another assay addresses T1, E. coli Trx (Escherichia coli, UniProt P0AA25).
T1 construct: endogenous in cells; host or cells: E. coli DHB4
In kind it is cell-based. The settings on record: Ag^+ or ebselen alone.

A further assay relates to E. coli DHB4 WT. Put plainly: MIC of silver and ebselen on E. coli DHB4 redox phenotypes. The assay is classed as cell-based, Escherichia coli. The conditions noted are these: 24 h; for MIC: Escherichia coli, DHB4WT, read-out: MIC of ebselen in the presence of silver. The procedure:
as §1, §2

The subject of the next assay is GSH. The assay can be described thus: GSH amount in treated E. coli cell extracts, GR-coupled DTNB reduction. In kind it is cell-based, Escherichia coli.
The next assay deals with E. coli TrxR (Escherichia coli, UniProt P0A9P4). In kind it is cell-based. Set-up: endogenous in cells; host or cells: E. coli DHB4. The conditions noted are these: Ag^+ or ebselen alone. The procedure: E. coli DHB4 cells were grown till the absorbance at OD600 nm, of 0.4 in LB medium, and the bacterial cells were treated with different dilutions of ebselen and AgNO3 for 10 min. Cells were harvested by centrifugation at 6,000 rpm for 5 min and thoroughly washed 3 times with PBS, then cells were re-suspended in lysis buffer (25 mM Tris.HCl, pH 7.5, 100 mM NaCl, 2.5 mM EDTA, 2.5 mM EGTA, 20 mM NaF, 1 mM Na3VO4, 20 mM sodium ß-glycerophosphate, 10 mM sodium pyrophosphate, 0.5% Triton X-100) containing protease inhibitor cocktail and lysed by sonication. The cell lysates were obtained by centrifugation at 13,000 rpm for 20 min and the protein concentration was measured by Lowry protein assay (Bio-Rad DC™).
E. coli DHB4 TrxR activity in cell extracts was measured by a DTNB reduction activity assay.
E. coli DHB4 cells were grown till the absorbance at OD600 nm of 0.4 in LB medium, and the bacterial cells were treated with 80 μM antibiotics and 5 μM AgNO3 for 10 and 60 min, respectively. The cultures treated with 80 μM ebselen and 5 μM AgNO3 were used as the positive control. […] The cell lysates were obtained by centrifugation at 13,000 rpm for 20 min and the protein concentrations were measured by the Lowry protein assay.
E. coli DHB4 TrxR activity in cell extracts was measured by a DTNB reduction activity assay^23.

Assay [3] deals with E. coli DHB4. Put plainly: E. coli DHB4 growth in micro-well plates, OD600 nm, 16 h. In kind it is cell-based, Escherichia coli. The protocol: The effect of silver nitrate with ebselen in combination on the growth of Gram-negative model bacteria, E. coli, was investigated in the microplates. DHB4 overnight cultures were diluted 1:1000 times in Luria-Bertani (LB) medium, and treated with ionic silver (Ag^+) as a nitrate salt (AgNO3) for 16 h.
E. coli DHB4 cells overnight cultures were diluted 1:1000 times in Luria-Bertani (LB) medium and treated with serial concentrations of AgNO3 and/or ebselen for 16 h. The cell viability was determined by measuring the absorbance at 600 nm. The culture treated with 0.8% (v/v) DMSO was used as a control.
E. coli DHB4 cells were grown until an OD600 nm of 0.4, and treated with serial dilutions of ebselen (0, 2, 4, 8 μM) for 16 h. The cell viability was determined by measuring the absorbance at 600 nm. The culture treated with 0.8% (v/v) DMSO was used as a control.

[4] abbreviates: 40 μM ebselen or 5 μM Ag^+ alone.
The mark [5] stands for this setting: 5 μM Ag^+ alone or 20 μM ebselen alone, compared with control.

Entries after “also recorded” stand apart in the source; their conditions may differ. Where two headings read alike, the source gives them in different places.

Chain of E. coli TrxR (P0A9P4 whole entry): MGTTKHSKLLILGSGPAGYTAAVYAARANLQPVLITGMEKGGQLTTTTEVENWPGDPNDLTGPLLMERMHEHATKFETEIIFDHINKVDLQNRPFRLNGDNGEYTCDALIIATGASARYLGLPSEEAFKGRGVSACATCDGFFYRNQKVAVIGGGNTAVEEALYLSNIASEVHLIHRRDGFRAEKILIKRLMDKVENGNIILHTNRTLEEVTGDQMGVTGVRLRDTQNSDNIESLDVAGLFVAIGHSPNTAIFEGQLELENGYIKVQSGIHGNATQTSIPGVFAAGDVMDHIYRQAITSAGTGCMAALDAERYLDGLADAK
T1 sequence (P0AA25 2-109): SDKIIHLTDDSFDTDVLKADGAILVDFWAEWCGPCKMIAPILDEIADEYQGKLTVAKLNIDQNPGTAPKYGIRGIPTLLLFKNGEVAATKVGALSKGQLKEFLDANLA

In the case of `O=c1c2ccccc2[se]n1-c1ccccc1` [ebselen, 2-phenyl-1,2-benzisoselenazol-3(2H)-one], the “E. coli growth (OD600 nm)” value in the assay with E. coli DHB4 [1] (setting [4]) is “did not inhibit bacterial growth”; in the assay with E. coli DHB4 [1] (80 μM ebselen alone, back to normal 12 h post-treatment), “could inhibit E. coli growth in first 8 h”. Further, the MIC with E. coli DHB4 oxyR^− (Escherichia coli, 24 h, Silver 0 μM, oxyR^−, 24 h) is 40 µM; with E. coli DHB4 oxyR^− (Escherichia coli, 24 h, Silver 5 μM, oxyR^−, 24 h), 1 µM; with E. coli DHB4 oxyR^− (Escherichia coli, 24 h, Silver 10 μM, oxyR^−, 24 h), 0.5 µM; in the assay with E. coli DHB4 oxyR^− (Escherichia coli, 24 h) it was 4 µM; in the assay on E. coli DHB4 oxyR^−, 2 µM; with E. coli DHB4 WT (Silver 0 μM), 80 µM. For the same molecule, the MIC with E. coli DHB4 WT (Silver 0.625 μM) came out at 8 µM; in the assay on E. coli DHB4 WT (Silver 1.25 μM) it was 4 µM; with E. coli DHB4 WT (Silver 2.5 μM), 4 µM; with E. coli DHB4 WT (Silver 5 μM) it was 2 µM; with E. coli DHB4 WT (Silver 10 μM) it was 1 µM; in the assay on E. coli DHB4 WT (Silver 20 μM), 0.5 µM. Also, the ROS concentrations result in the assay on E. coli DHB4 [2] is on record as “did not change ROS concentrations”. Further, the “Trx activities in cell extracts” value on E. coli Trx is given as “not influenced”. The GSH levels entry in the assay with GSH (setting [5]) was “neither 5 μM Ag^+ nor 20 μM ebselen modulated GSH levels”; in the assay on GSH (ebselen alone at 80 and 40 μM), “reduced GSH levels”. In addition, at E. coli TrxR, the “TrxR activities in cell extracts” value was “not influenced”. Further, the “effect on E. coli growth” value in the assay on E. coli DHB4 [3] (ebselen alone (2, 4, 8 μM), 16 h) is listed as “no effects on bacterial growth; also recorded: no effect on the growth of E. coli”.

On to `O=[N+]([O-])[O-].[Ag+]` [silver, silver nitrate], for which, in the assay on E. coli DHB4 [1] (setting [4]), the “E. coli growth (OD600 nm)” value was “did not inhibit bacterial growth”. The “MIC of silver in the presence of ebselen” value in the assay with E. coli DHB4 oxyR^− (Ebselen 0 μM, oxyR^−, 24 h) was found to be 20 µM; in the assay with E. coli DHB4 oxyR^− (Ebselen 1 μM, oxyR^−, 24 h) it was 5 µM; with E. coli DHB4 oxyR^− (Ebselen 2 μM, oxyR^−, 24 h), 1.25 µM; in the assay on E. coli DHB4 oxyR^− (Ebselen 4 μM, oxyR^−, 24 h), 0.625 µM; in the assay with E. coli DHB4 WT (Ebselen 0 μM) it was 40 µM; with E. coli DHB4 WT (Ebselen 1 μM), 10 µM. The “MIC of silver in the presence of ebselen” value worked out at 5 µM in the assay on E. coli DHB4 WT (Ebselen 2 μM) and 1.25 µM in the assay on E. coli DHB4 WT (Ebselen 4 μM). For the same molecule, the ROS concentrations result in the assay with E. coli DHB4 [2] is “did not change ROS concentrations”. On E. coli Trx, the “Trx activities in cell extracts” value is given as “not influenced”. Besides, the GSH levels result in the assay with GSH (setting [5]) is reported as “neither 5 μM Ag^+ nor 20 μM ebselen modulated GSH levels”. Moreover, the “TrxR activities in cell extracts” value on E. coli TrxR is “not influenced”. Also, in the assay with E. coli DHB4 [3] (Ag^+ alone, 16 h treatment), the “minimal inhibition concentration (MIC) of Ag^+” value is 42 µM. In addition, the “MIC of Ag^+” value in the assay on E. coli DHB4 [3] (with 2 μM ebselen, 16 h treatment) is 4.2 µM.

These data come from patent US10653717B2, “Antibiotic compositions” (priority 2016, dated 2020).
